pIC50: −log10 of the molar value.
Target: T1, Human DGAT1 (Homo sapiens, UniProt O75907)
T1 construct: made in house; host or cells: Sf9 insect cells (baculovirus); microsomes used as enzyme
T1 sequence (O75907 1-488): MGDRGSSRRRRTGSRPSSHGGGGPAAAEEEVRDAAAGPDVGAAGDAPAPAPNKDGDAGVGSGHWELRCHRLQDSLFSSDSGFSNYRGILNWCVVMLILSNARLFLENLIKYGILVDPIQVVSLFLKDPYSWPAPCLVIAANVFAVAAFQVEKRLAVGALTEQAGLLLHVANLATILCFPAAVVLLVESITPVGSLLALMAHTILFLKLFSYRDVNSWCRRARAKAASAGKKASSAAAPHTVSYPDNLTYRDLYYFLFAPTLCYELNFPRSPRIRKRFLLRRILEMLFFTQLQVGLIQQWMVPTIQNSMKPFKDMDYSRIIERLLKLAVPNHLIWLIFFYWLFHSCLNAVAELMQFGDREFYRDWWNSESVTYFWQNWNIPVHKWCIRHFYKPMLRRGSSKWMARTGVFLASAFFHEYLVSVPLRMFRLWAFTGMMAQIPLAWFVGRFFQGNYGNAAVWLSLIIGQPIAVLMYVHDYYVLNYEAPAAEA
Assay: human DGAT1 lipid extraction (LE) assay, inhibition of triacylglycerol product formation
Assay type: biochemical
Conditions: human DGAT1 microsomes from Sf9 cells, read-out: hDGAT LE IC50
Method: Human DGAT1 was expressed in Sf9 insect cells using a baculovirus expression system. Microsomes were prepared and used as enzyme for in vitro inhibition testing in either of two formats measuring production of coenzyme A or tridecanoylglycerol product, respectively. All steps were performed at 21-23° C. All data for DGAT1 inhibition by test compounds were collected under conditions where product formation was linear with reaction time.
For inhibition of triacylglycerol product formation, 11 uL reactions were run in white Polyplate-384 (PerkinElmer6007300) starting with a 30 minute pre-reaction incubation of 5 uL of 2.2× enzyme and 1 uL of 100% DMSO containing test compound or control compound, {4-[4-(4-amino-7,7-dimethyl-7H-pyrimido[4,5-b][1,4]oxazin-6-yl)phenyl]cyclohexyl}acetic acid. Some assays were performed with inclusion of didecanoylglycerol in the pre-reaction incubation of test compounds and enzyme. Reactions were initiated after 30 minute pre-reaction incubation via addition of 5 uL of 2.2× substrate. Final reaction conditions consisted of 50 mM HEPES pH 7.5, 2 mM MgCl2, 1 mM CHAPS, 25 uM didecanoylglycerol, 0.5 uM decanoyl-CoA, 0.3 nCi/uL [^14C-]decanoyl-CoA or 0.5 nCi/uL [^3H]-decanoyl-CoA, 0.05-4 ug/mL microsomal protein, and 1% DMSO. Following 60 minute reaction incubation, reactions were stopped with 40 uL of 45% isopropanol and 50 mM sodium carbonate in water and mixed. Extraction of tridecanoylglycerol product was accomplished via addition of 30 uL Microscint-E (Perkin Elmer) and 2 hours of incubation (sealed). Plates were read on a Microbeta Microplate reader Inhibition was normalized to controls containing DMSO or 10 uM {4-[4-(4-amino-7,7-dimethyl-7H-pyrimido[4,5-b][1,4]oxazin-6-yl)phenyl]cyclohexyl}acetic acid. IC50s were fitted using GraphPad Prism to a sigmoidal dose response.

| Structure (SMILES) | pIC50 |
| --- | --- |
| O=C(O)CC1(CC(F)(F)F)CCc2cc(-c3ccc(Nc4cccc(Cl)c4)nn3)ccc2C1=O (single isomer, unassigned) [Example 21, 2-(6-(6-((3-chlorophenyl)amino)pyridazin-3-yl)-1-oxo-2-(2,2,2-trifluoroethyl)-1,2,3,4-tetrahydronaphthalen-2-yl)acetic acid] | ≥ 7.00 |
| Cc1ccc(Nc2ccc(-c3ccc4c(c3)CCC(CC(=O)O)(CC(F)(F)F)C4=O)nn2)cn1 (single isomer, unassigned) [Example 22, 2-(6-(6-(6-methylpyridin-3-ylamino)pyridazin-3-yl)-1-oxo-2-(2,2,2-trifluoroethyl)-1,2,3,4-tetrahydronaphtha-len-2-yl)acetic acid] | ≥ 7.00 |
| O=C(O)CC1(CC(F)(F)F)CCc2cc(-c3ccc(Nc4ccc(C(F)(F)F)nc4)nn3)ccc2C1=O (single isomer, unassigned) [Example 24, 2-(1-oxo-2-(2,2,2-trifluoroethyl)-6-(6-(6-(trifluoromethyl)pyridin-3-ylamino)pyridazin-3-yl)-1,2,3,4-tetrahydronaphthalen-2-yl)acetic acid] | 5.00 to 6.30 |
| Cc1cnc(Nc2ccc(-c3ccc4c(c3)CCC(CC(=O)O)(CC(F)(F)F)C4=O)nn2)s1 (single isomer, unassigned) [Example 25, 2-(6-(6-(5-methylthiazol-2-ylamino)pyridazin-3-yl)-1-oxo-2-(2,2,2-trifluoroethyl)-1,2,3,4-tetrahydronaphthalen-2-yl)acetic acid] | 5.00 to 6.30 |
| O=C(O)CC1(CC(F)(F)F)CCc2cc(-c3cnc(Nc4ccc(C(F)(F)F)nc4)s3)ccc2C1=O (single isomer, unassigned) [Example 27, 2-(1-oxo-2-(2,2,2-trifluoroethyl)-6-(2-(6-(trifluoromethyl)pyridin-3-ylamino)thiazol-5-yl)-1,2,3,4-tetrahydronaphthalen-2-yl)acetic acid] | 6.30 to 7.00 |

The next lines start with the values.

| pIC50 | Structure (SMILES) |
| --- | --- |
| ≥ 7.00 | O=C(O)CC1(CC(F)(F)F)CCc2cc(-c3ccc(Nc4ccc(C(F)(F)F)nc4)nn3)ccc2C1=O (single isomer, unassigned) [Example 23, 2-(1-oxo-2-(2,2,2-trifluoroethyl)-6-(6-(6-(trifluoromethyl)pyridin-3-ylamino)pyridazin-3-yl)-1,2,3,4-tetrahydronaphthalen-2-yl)acetic acid] |
| 6.30 to 7.00 | O=C(O)CC1(CC(F)(F)F)CCc2cc(-c3cnc(Nc4cccc(Cl)c4)s3)ccc2C1=O (single isomer, unassigned) [Example 26, 2-(6-(2-(3-Chlorophenylamino)thiazol-5-yl)-1-oxo-2-(2,2,2-trifluoroethyl)-1,2,3,4-tetrahydronaphthalen-2-yl)acetic acid] |
| ≥ 7.00 | O=C(O)CC1(CC(F)(F)F)CCc2cc(-c3cnc(Nc4ccc(C(F)(F)F)nc4)s3)ccc2C1=O (single isomer, unassigned) [Example 28, 2-(1-oxo-2-(2,2,2-trifluoroethyl)-6-(2-(6-(trifluoromethyl)pyridin-3-ylamino)thiazol-5-yl)-1,2,3,4-tetrahydronaphthalen-2-yl)acetic acid] |

Source: patent US9221766B2, “Compounds as diacylglycerol acyltransferase inhibitors” (GlaxoSmithKline LLC, priority 2012, dated 2015)
